Data published in PMC5481817, “Developing Targeted Hybrid Imaging Probes by Chelator Scaffolding” (Bioconjugate chemistry, 2017).
*1 amine or outer side, *2 acyl side, *3 side chain or, on linkers, in order; H or OH if unused. Where a SMILES comes first, the peptide text is derived from it. Bridges are numbered along the chain shown (N, C = ends). Roman numbers before positions name the chains, in order. [ ]: non-standard residue; d: D form. X2 = CC1=CC(=O)N(O)CCCC(NC(=O)CCN2C(=O)CC([*:2])C2=O)C(=O)OCCC(C)=CC(=O)N(O)CCCC(NC(=O)CCN2C(=O)CC([*:1])C2=O)C(=O)OCCC(C)=CC(=O)N(O)CCCC(NC(=O)CCCCC[N+]2=C(C=CC3=CC(=CC=C4N(C)c5ccc(S(=O)(=O)O)cc5C4(C)C)CCC3)C(C)(C)c3cc(S(=O)(=O)[O-])ccc32)C(=O)OCC1; Mpa = O=C(O)CCS

Columns and labels:
integrin αvβ3 = target: T1, integrin αvβ3 (Homo sapiens, UniProt P05106+P06756); assay: Integrin binding affinity assay (displacement of [125I]-c(RGDyV)) on M21 cells
T1 construct: endogenous in cells; host or cells: human melanoma M21 cells (gift from D. A. Cheresh)
T1 sequence (P06756 31-889 limits assumed): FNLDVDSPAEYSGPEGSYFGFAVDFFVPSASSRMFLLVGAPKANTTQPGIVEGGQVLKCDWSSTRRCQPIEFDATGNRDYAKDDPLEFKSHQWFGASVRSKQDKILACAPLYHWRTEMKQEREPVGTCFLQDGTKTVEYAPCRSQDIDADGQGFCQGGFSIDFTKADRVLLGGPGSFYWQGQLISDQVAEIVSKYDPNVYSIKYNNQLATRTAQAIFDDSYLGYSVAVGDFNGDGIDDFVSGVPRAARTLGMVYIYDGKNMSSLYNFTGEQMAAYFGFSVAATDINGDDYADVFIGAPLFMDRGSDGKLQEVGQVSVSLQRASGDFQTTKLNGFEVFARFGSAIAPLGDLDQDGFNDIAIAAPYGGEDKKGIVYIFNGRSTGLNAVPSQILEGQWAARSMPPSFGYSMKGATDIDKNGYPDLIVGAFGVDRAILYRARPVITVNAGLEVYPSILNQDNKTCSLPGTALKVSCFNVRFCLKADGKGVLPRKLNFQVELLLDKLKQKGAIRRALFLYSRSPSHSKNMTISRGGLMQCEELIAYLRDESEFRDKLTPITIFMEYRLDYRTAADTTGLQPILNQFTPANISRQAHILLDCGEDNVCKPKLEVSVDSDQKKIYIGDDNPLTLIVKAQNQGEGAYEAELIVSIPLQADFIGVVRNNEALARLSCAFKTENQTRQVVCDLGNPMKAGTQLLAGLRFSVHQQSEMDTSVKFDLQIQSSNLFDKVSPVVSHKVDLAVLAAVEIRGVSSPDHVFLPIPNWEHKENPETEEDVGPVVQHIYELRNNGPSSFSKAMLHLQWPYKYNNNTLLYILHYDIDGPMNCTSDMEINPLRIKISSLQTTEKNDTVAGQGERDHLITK
T1 sequence (P06756 891-1048 partner limits assumed): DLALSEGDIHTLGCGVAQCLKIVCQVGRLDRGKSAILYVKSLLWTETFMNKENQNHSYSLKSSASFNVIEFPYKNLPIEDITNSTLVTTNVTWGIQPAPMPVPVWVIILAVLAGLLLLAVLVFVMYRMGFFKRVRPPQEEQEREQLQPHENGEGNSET
T1 sequence (P05106 27-788): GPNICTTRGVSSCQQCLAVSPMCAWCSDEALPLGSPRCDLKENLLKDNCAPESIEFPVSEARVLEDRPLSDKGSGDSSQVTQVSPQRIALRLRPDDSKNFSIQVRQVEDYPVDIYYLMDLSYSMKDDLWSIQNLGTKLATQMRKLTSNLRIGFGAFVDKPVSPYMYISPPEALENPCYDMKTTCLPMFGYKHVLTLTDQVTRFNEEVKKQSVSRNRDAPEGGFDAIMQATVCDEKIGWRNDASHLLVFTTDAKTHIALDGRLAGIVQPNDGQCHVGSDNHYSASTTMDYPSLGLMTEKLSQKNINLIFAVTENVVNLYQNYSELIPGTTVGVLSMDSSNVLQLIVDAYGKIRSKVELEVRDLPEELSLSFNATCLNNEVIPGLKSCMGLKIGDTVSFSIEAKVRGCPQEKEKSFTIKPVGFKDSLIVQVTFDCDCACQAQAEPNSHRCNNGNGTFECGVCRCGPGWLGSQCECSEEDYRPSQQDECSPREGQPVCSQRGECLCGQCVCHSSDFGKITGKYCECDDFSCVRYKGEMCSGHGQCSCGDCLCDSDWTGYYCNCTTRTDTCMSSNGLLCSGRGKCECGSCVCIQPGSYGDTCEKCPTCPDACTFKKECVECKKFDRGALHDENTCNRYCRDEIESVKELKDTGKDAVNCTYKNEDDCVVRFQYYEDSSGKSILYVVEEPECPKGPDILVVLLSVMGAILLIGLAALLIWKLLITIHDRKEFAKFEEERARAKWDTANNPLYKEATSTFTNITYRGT
Method: (§1) Receptor binding affinities were evaluated via a displacement cell-binding assay for metal free as well as metal bound ([^natGa]) conjugates. Binding of nonradioactive gallium was performed in analogy to the radiolabeling procedure but instead of the generator eluate a 100-fold molar excess of gallium bromide (GaBr3) dissolved in 100 μL 0.1 N HCl was used. Cells were prepared as described below and incubated with increasing concentrations [0.001–1000 nM] of competitor in triplicate. After addition of corresponding iodinated radioligand the 96-well MulitScreen Filter Plates HTS (1 μm glass fiber filter, Merck Millipore, Darmstadt, Germany) were incubated for 1 or 2 h at RT under shaking conditions (Compact shaker KS-15 control, 200/min) and after a washing step the remaining activity on the filter was measured in the γ-counter. The receptor affinity of DOTA-minigastrin11 as well as c(RGDyV) were determined under the corresponding conditions as a reference. IC50 values were calculated by using nonlinear curve fitting with following formula NS+SB/(1+x/IC50) on Origin 6.1 software (Northampton, MA, USA). A detailed description regarding iodination can be found in the Supporting Information.
Integrin binding affinity assay was adapted from Yun Wu et al.[31] Briefly, M21 cells were washed two times with phosphate buffered saline followed by suspension in binding buffer (=20 mM TRIS pH 7.4 + 150 mM NaCl + 2 mM CaCl2 + 1 mM MgCl2 + 1 mM MnCl2 0.1% BSA). 96-well plates were washed with 200 μL of 20 mM TRIS-buffer and seeded with 1 × 10^6 cells/well (10^7 cells/mL). After 10 min of incubation in the presence of the competitor {([^natGa])Sulfo-Cy7-FSC-RGD or c(RGDyV) diluted in binding buffer)} volume was adjusted to 200 μL/well by adding 50 μL of radioligand ([^125I]-c(RGDyV), 4.5 × 10^4 cpm) and the plate was left for 2 h at RT. Finally the supernatant was removed by vacuum and each well was washed three times with 200 μL ice-cold binding buffer.

human CCK-2 receptor = target: T2, human CCK-2 receptor (Homo sapiens, UniProt P32239); assay: Whole cell receptor binding affinity (displacement of [125I]-[Leu15]-Gastrin I) on A431-CCK2R cells
T2 construct: expressed in transfected cells; host or cells: A431 human squamous carcinoma cells (gift from L. Aloj)
T2 sequence (P32239 1-447): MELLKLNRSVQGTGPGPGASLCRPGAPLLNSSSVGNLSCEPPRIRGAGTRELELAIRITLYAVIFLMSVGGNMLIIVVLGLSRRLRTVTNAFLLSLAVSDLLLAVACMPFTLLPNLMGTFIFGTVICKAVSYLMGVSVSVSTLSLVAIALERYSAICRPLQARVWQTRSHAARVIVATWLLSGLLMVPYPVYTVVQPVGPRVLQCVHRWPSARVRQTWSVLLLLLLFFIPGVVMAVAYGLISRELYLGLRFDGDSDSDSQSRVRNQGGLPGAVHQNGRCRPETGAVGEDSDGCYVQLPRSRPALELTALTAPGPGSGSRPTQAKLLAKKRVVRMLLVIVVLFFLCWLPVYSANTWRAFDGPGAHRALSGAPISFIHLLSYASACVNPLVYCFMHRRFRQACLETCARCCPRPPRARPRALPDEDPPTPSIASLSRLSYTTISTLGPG
Method: as §1
A431-CCK2R cells were diluted in 50 mM HEPES buffer (pH 7.3) containing 5 mM MgCl2 and 0.3% BSA to a density of 5 × 10^6 cells/mL. 96-well plates were washed with 200 μL of 10 mM TRIS buffered saline (pH 7.3) and 100 μL of cell suspension were added to each well. Hereafter 50 μL of competitor solution {([^natGa])Sulfo-Cy7-FSC-MG or DOTA-minigastrin^11 diluted in 20 mM HEPES; 10 mM MgCl2 and 0.1% BSA} of each concentration were added and left for 10 min at RT. After incubation with 50 μL of radioligand (human [^125I]-[Leu^15]-Gastrin I 4.5 × 10^4 cpm) for 1 h the plate was washed twice with 200 μL TRIS-buffer/well.

[1] = system: A431-CCK2R/A431-mock tumor xenograft-bearing BALB/c nude mice; assay: Near-infrared fluorescence imaging, A431-CCK2R/A431-mock xenografts; format: in vivo, mouse
Method: All animal experiments were conducted in accordance with regulations and guidelines of the Czech Animal Protection Act (No. 246/1992), and with the approval of the Czech Ministry of Education, Youth, and Sports (MSMT-22421/2013–12), and the institutional Animal Welfare Committee of the Faculty of Medicine and Dentistry of Palacky University in Olomouc. The studies were performed using female 8–10-week-old athymic BALB/c nude mice (Envigo, Horst, The Netherlands). […]
Tumor xenografts were established near the front shoulder of mice by subcutaneous injection of 5 × 10^6 cells (U-87 MG) or 2 × 10^6 cells (A431-CCK2R) and the same amount of A431-mock cells as a control in 200 μL appropriate medium and Matrigel (1:1). […] Tumors, blood, muscle tissue, and organs were extracted, weighed, and activity uptake of the samples was measured in the gamma counter. Results were expressed as percentage of injected dose per gram tissue (% ID/g). […] After reconstruction, acquired data was viewed and analyzed with PMOD software (PMOD Technologies Ltd., Zurich, Switzerland). […] Near-infrared in vivo fluorescence imaging was performed with an In-Vivo MS FX PRO small animal imaging system (Bruker Biospin Corporation, Woodbridge, CT, USA). […] An appropriate filter set (excitation = 730 nm and emission = 790 nm) was used for acquiring the Sulfo-Cy7-FSC-peptide - fluorescence in vivo. […]

A431-CCK2R cells = assay: Fluorescence measured cell specificity, A431-CCK2R; format: cell-based, human; conditions: 2 h incubation, 3 nM ligand
Method: Fluorescence assays were conducted similarly to the internalization assays except for using lower cell numbers and determining only the cellbound fraction. Briefly, A431-CCK2R, M21, and M21-L cells were diluted in corresponding media to a density of 2 × 10^6 cells/mL. Aliquots of 0.5 mL were transferred to Eppendorf tubes—six technical replicates for A431-CCK2R unblocked and blocked and M21/M21-L, respectively—and treated in the same manner as described above. The nonradiolabeled particular ligand was added to a final concentration of 3 nM and the tubes were kept in an incubator (Incubator hood TH15 and Compact shaker KS-15 control, Edmund Bühler GmbH, Hechingen, Germany) at 37 °C for 2 h under vigorously shaking (420/min). After centrifugation (2 min, 5000 rpm) washing steps were performed as mentioned before. […] Fluorescence intensity was measured with Tecan Infinite 200 PRO series multiplate reader (Tecan Trading AG, Switzerland) by using Tecan Icontrol 1.1 software. Parameters were set as follows: Fluorescence Top reading; excitation/emission wavelength 740/790 nm; excitation bandwidth 9 nm; emission bandwidth 20 nm; gain optimal; number of flashes 25; integration time 25 μs. Results were calculated and expressed as percentage of cell-bound fluorescence in relation to the standards sample.

[2] = metal-bound ([natGa]) complexed form

SMILES: CC1=CC(=O)N(O)CCCC(NC(=O)CCN2C(=O)CC(SCCOCCOCCOCCOCCC(=O)NCCCC[C@@H]3NC(=O)[C@@H](Cc4ccccc4)NC(=O)[C@H](CC(=O)O)NC(=O)CNC(=O)[C@H](CCCNC(=N)N)NC3=O)C2=O)C(=O)OCCC(C)=CC(=O)N(O)CCCC(NC(=O)CCN2C(=O)CC(SCCOCCOCCOCCOCCC(=O)NCCCC[C@@H]3NC(=O)[C@@H](Cc4ccccc4)NC(=O)[C@H](CC(=O)O)NC(=O)CNC(=O)[C@H](CCCNC(=N)N)NC3=O)C2=O)C(=O)OCCC(C)=CC(=O)N(O)CCCC(NC(=O)CCCCC[N+]2=C(C=CC3=CC(=CC=C4N(C)c5ccc(S(=O)(=O)O)cc5C4(C)C)CCC3)C(C)(C)c3cc(S(=O)(=O)[O-])ccc32)C(=O)OCC1 (stereo partly drawn) [[^natGa]Sulfo-Cy7-FSC-RGD, metal not drawn]
- IC50 (integrin αvβ3; [natGa] bound form): 0.81 ± 0.19 nM

SMILES: CC(C)[C@@H]1NC(=O)[C@@H](Cc2ccc(O)cc2)NC(=O)[C@H](CC(=O)O)NC(=O)CNC(=O)[C@H](CCCNC(=N)N)NC1=O [c(RGDyV), reference compound]
- IC50 (integrin αvβ3; metal-free conjugate or reference peptide, radioligand [125I]-c(RGDyV), 2 h RT): 15.2 ± 2.86 nM

SMILES: CSCC[C@H](NC(=O)[C@H](Cc1c[nH]c2ccccc12)NC(=O)CNC(=O)[C@H](Cc1ccc(O)cc1)NC(=O)[C@H](C)NC(=O)[C@@H](CCC(=O)O)NC(=O)CCSC1CC(=O)N(CCC(=O)NC2CCCN(O)C(=O)C=C(C)CCOC(=O)C(NC(=O)CCN3C(=O)CC(SCCC(=O)N[C@H](CCC(=O)O)C(=O)N[C@@H](C)C(=O)N[C@@H](Cc4ccc(O)cc4)C(=O)NCC(=O)N[C@@H](Cc4c[nH]c5ccccc45)C(=O)N[C@@H](CCSC)C(=O)N[C@@H](CC(=O)O)C(=O)N[C@@H](Cc4ccccc4)C(N)=O)C3=O)CCCN(O)C(=O)C=C(C)CCOC(=O)C(NC(=O)CCCCC[N+]3=C(C=CC4=CC(=CC=C5N(C)c6ccc(S(=O)(=O)O)cc6C5(C)C)CCC4)C(C)(C)c4cc(S(=O)(=O)[O-])ccc43)CCCN(O)C(=O)C=C(C)CCOC2=O)C1=O)C(=O)N[C@@H](CC(=O)O)C(=O)N[C@@H](Cc1ccccc1)C(N)=O (stereo partly drawn) [[^natGa]Sulfo-Cy7-FSC-MG, metal not drawn] (I: [Mpa][dE]AYGWMDF-NH2 / II: [Mpa][dE]AYGWMDF-NH2; linker I:1-II:1 via X2)
- IC50 (human CCK-2 receptor; [2]): 2.68 ± 0.53 nM

SMILES: CSCC[C@H](NC(=O)[C@H](Cc1c[nH]c2ccccc12)NC(=O)CNC(=O)[C@H](Cc1ccc(O)cc1)NC(=O)[C@H](C)NC(=O)[C@@H](CCC(=O)O)NC(=O)CCSC1CC(=O)N(CCC(=O)NC2CCCN(O)C(=O)C=C(C)CCOC(=O)C(NC(=O)CCN3C(=O)CC(SCCC(=O)N[C@H](CCC(=O)O)C(=O)N[C@@H](C)C(=O)N[C@@H](Cc4ccc(O)cc4)C(=O)NCC(=O)N[C@@H](Cc4c[nH]c5ccccc45)C(=O)N[C@@H](CCSC)C(=O)N[C@@H](CC(=O)O)C(=O)N[C@@H](Cc4ccccc4)C(N)=O)C3=O)CCCN(O)C(=O)C=C(C)CCOC(=O)C(NC(=O)CCCCC[N+]3=C(C=CC4=CC(=CC=C5N(C)c6ccc(S(=O)(=O)O)cc6C5(C)C)CCC4)C(C)(C)c4cc(S(=O)(=O)[O-])ccc43)CCCN(O)C(=O)C=C(C)CCOC2=O)C1=O)C(=O)N[C@@H](CC(=O)O)C(=O)N[C@@H](Cc1ccccc1)C(N)=O (stereo partly drawn) [Sulfo-Cy7-FSC-MG, Sulfo-Cyanine7-FSC-(mal-MG11)2] (I: [Mpa][dE]AYGWMDF-NH2 / II: [Mpa][dE]AYGWMDF-NH2; linker I:1-II:1 via X2)
- optical imaging tumor contrast ([1]; 2 h after injection): moderate contrast
- optical imaging tumor contrast ([1]; 5 h up to 3 days p.i.): excellent contrast
- Fluorescence-determined cell uptake (A431-CCK2R cells; blocked A431-CCK2R cells): 1.65 ± 0.47%
- Fluorescence-determined cell uptake (A431-CCK2R cells; nonblocked A431-CCK2R cells): 10.78 ± 1.04%
- IC50 (human CCK-2 receptor; [2]): 2.68 ± 0.53 nM
- IC50 (human CCK-2 receptor; metal-free (uncomplexed) conjugate or reference peptide, radioligand [125I]-[Leu15]-Gastrin I, 1 h RT): 2.81 ± 0.66 nM
